Experimental data published in ChEMBL document CHEMBL1201862, “PubChem BioAssay data set” (2004).
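Dose response: 5 concentrations. Exposure: 48 h. Format: 96-well plates. Endpoint: linear interpolation; highest concentration if not reached. GI50 marks 50% less growth.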 Activity calls are given as the source filed them. Rule as the data show it: active = GI50 up to about 1.1 µM and inactive = higher.

Tests used:
Experiment in all cases: NCI-60 cell line screen, 48 h
MOLT-4 = system: MOLT-4
T47D = system: T47D
COLO 205 = system: COLO 205
HCT-15 = system: HCT-15
UACC-62 = system: UACC-62
MDA-N = system: MDA-N
IGROV-1 = system: IGROV-1
LOX IMVI = system: LOX IMVI
HT-29 = system: HT-29
NCI/ADR-RES = system: NCI/ADR-RES
CAKI-1 = system: CAKI-1
786-0 = system: 786-0
RXF 393 = system: RXF 393
NCI-H226 = system: NCI-H226
TK-10 = system: TK-10
HCC 2998 = system: HCC 2998
HOP-92 = system: HOP-92
DU-145 = system: DU-145
HL-60 = system: HL-60

SMILES | GI50 (MOLT-4) | GI50 (T47D) | GI50 (COLO 205) | GI50 (HCT-15) [µM] | GI50 (UACC-62) | GI50 (MDA-N) | GI50 (IGROV-1) | GI50 (LOX IMVI) | GI50 (HT-29) | GI50 (NCI/ADR-RES) | GI50 (CAKI-1) | GI50 (786-0) | GI50 (RXF 393) | GI50 (NCI-H226) | GI50 (TK-10) | GI50 (HCC 2998) | GI50 (HOP-92) | GI50 (DU-145) | GI50 (HL-60)
CC(=O)C1=C(N=[N+]=[N-])c2cccc3cccc(c23)C1=O | 7.19 µM (inactive) | 15.8 µM (inactive) | 15.7 µM (inactive) | 15.7 | 15.2 µM (inactive) | 18.9 µM (inactive) | 16.1 µM (inactive) | 14.7 µM (inactive) | 17.6 µM (inactive) | 25.1 µM (inactive) | 15.3 µM (inactive) | 17.1 µM (inactive) | 11.4 µM (inactive) | 24.7 µM (inactive) | 15.3 µM (inactive) | 17.6 µM (inactive) | 21.7 µM (inactive) |  | 
C1COCCN1.CN(C)c1ccc(-c2c(C#N)c(N)nc(S)c2C#N)cc1 |  |  | > 100 µM (inactive) | > 100 | 35 µM (inactive) | 54.1 µM (inactive) | 40.1 µM (inactive) | 80.2 µM (inactive) | > 100 µM (inactive) | > 100 µM (inactive) | 43.9 µM (inactive) | > 100 µM (inactive) | 23.5 µM (inactive) | 22.6 µM (inactive) | > 100 µM (inactive) | 56.1 µM (inactive) | 21.8 µM (inactive) | > 100 µM (inactive) | > 100 µM (inactive)
Nc1ccc(Cc2c(N)[nH]c(=O)[nH]c2=O)cc1 | 1.61 µM (inactive) | > 100 µM (inactive) | > 100 µM (inactive) | > 100 | > 100 µM (inactive) | > 100 µM (inactive) |  | > 100 µM (inactive) | > 100 µM (inactive) | > 100 µM (inactive) | > 100 µM (inactive) | > 100 µM (inactive) |  | 86.1 µM (inactive) |  | > 100 µM (inactive) | > 100 µM (inactive) | > 100 µM (inactive) | 85.5 µM (inactive)
O=C(c1c(Cl)cc(Cl)cc1Cl)N(Cc1cccnc1)C(=S)N(Cc1cccnc1)C(=O)c1c(Cl)cc(Cl)cc1Cl | 6.84 µM (inactive) | 14.4 µM (inactive) | 4.73 µM (inactive) | 3.05 | 15.1 µM (inactive) | 2.15 µM (inactive) |  | 3.65 µM (inactive) | 2.97 µM (inactive) | 11.4 µM (inactive) | 5.32 µM (inactive) | 2.26 µM (inactive) |  | 19 µM (inactive) | 3.93 µM (inactive) | 3.12 µM (inactive) | 3.25 µM (inactive) | 4.62 µM (inactive) | 7.23 µM (inactive)
O=C(O)/C=C/c1ccc2c(c1)CC1(Cc3ccccc3C1)C2 | 29.5 µM (inactive) | > 100 µM (inactive) | 27.8 µM (inactive) | 40.3 | > 100 µM (inactive) | > 100 µM (inactive) | 56.4 µM (inactive) | 38.1 µM (inactive) | 39.8 µM (inactive) | 76.7 µM (inactive) |  | > 100 µM (inactive) | 94 µM (inactive) | 33.7 µM (inactive) | > 100 µM (inactive) | 93.8 µM (inactive) | 52.2 µM (inactive) |  | 37.5 µM (inactive)
CSC1=C(C#N)C(=O)N(c2ccc(Cl)cc2)C(=O)C1C#N (stereo unspecified) | 97.5 µM (inactive) | 74.8 µM (inactive) | > 100 µM (inactive) | > 100 | > 100 µM (inactive) | > 100 µM (inactive) | > 100 µM (inactive) | > 100 µM (inactive) | > 100 µM (inactive) |  | > 100 µM (inactive) | > 100 µM (inactive) | > 100 µM (inactive) | > 100 µM (inactive) | > 100 µM (inactive) | > 100 µM (inactive) | 28.9 µM (inactive) | > 100 µM (inactive) | > 100 µM (inactive)
CC(C)CC(NC(=O)C(C)(CI)Cc1ccccc1)C(=O)Nc1ccccc1 (stereo unspecified) | 56.1 µM (inactive) |  | > 100 µM (inactive) | > 100 | > 100 µM (inactive) | > 100 µM (inactive) | > 100 µM (inactive) | > 100 µM (inactive) |  | > 100 µM (inactive) | > 100 µM (inactive) | > 100 µM (inactive) | > 100 µM (inactive) | > 100 µM (inactive) | > 100 µM (inactive) | > 100 µM (inactive) | > 100 µM (inactive) | > 100 µM (inactive) | 33.2 µM (inactive)
CC(=O)O[C@H]1C(=O)[C@@]2(C)[C@H]([C@H](OC(=O)c3ccoc3)[C@]3(O)C[C@H](OC(=O)[C@H](O)[C@@H](NC(=O)c4ccccc4)c4ccccc4)C(C)=C1C3(C)C)[C@]1(OC(C)=O)CO[C@@H]1C[C@@H]2O | 0.045 µM (active) | 0.0461 µM (active) | 0.0515 µM (active) | 4.24 | 0.053 µM (active) |  | 0.0962 µM (active) | 0.032 µM (active) | 0.0307 µM (active) | > 10.9 µM (inactive) | 8.18 µM (inactive) | 0.38 µM (active) | 0.277 µM (active) | 0.11 µM (active) | > 2.99 µM (inactive) | 0.116 µM (active) | > 12.5 µM (inactive) | 0.352 µM (active) | 0.0107 µM (active)
C=CC1ON(C)CCc2cc(OC)c(OC)cc21 (stereo unspecified) | > 100 µM (inactive) | 83.2 µM (inactive) | > 100 µM (inactive) | > 100 | 65.6 µM (inactive) | > 100 µM (inactive) | > 100 µM (inactive) | > 100 µM (inactive) | > 100 µM (inactive) | > 100 µM (inactive) | > 100 µM (inactive) | > 100 µM (inactive) |  | > 100 µM (inactive) | > 100 µM (inactive) | > 100 µM (inactive) | > 100 µM (inactive) | > 100 µM (inactive) | > 100 µM (inactive)
Cc1ccc(N/C(=C(/C(Cl)=C(Cl)Cl)[N+](=O)[O-])n2nnc3ccccc32)cc1 | 9.64 µM (inactive) | 22.5 µM (inactive) | 15.1 µM (inactive) | 24.3 |  | 18.9 µM (inactive) |  |  | 22 µM (inactive) | 27.2 µM (inactive) | 17.7 µM (inactive) | 20.8 µM (inactive) |  | 18.5 µM (inactive) |  | 18.7 µM (inactive) |  |  | 
CO[C@H](C)[C@](O)(C(=O)OCC1=CCN2CC[C@@H](O)[C@H]12)C(C)C | > 100 µM (inactive) | > 100 µM (inactive) | > 100 µM (inactive) | 55.2 | > 100 µM (inactive) | > 100 µM (inactive) | > 100 µM (inactive) | > 100 µM (inactive) | > 100 µM (inactive) | > 100 µM (inactive) | > 100 µM (inactive) | > 100 µM (inactive) |  | > 100 µM (inactive) | > 100 µM (inactive) | > 100 µM (inactive) | > 100 µM (inactive) | > 100 µM (inactive) | > 10 µM (inactive)
CCOC(=O)CCC(NC(=O)Cc1ccc(Oc2nc3ccccc3nc2-c2ccccc2)cc1)C(=O)OCC (stereo unspecified) | > 100 µM (inactive) | 24.9 µM (inactive) | > 100 µM (inactive) | > 100 | > 100 µM (inactive) | > 100 µM (inactive) |  |  | > 100 µM (inactive) | 70.8 µM (inactive) | > 100 µM (inactive) | 35.5 µM (inactive) | 37.6 µM (inactive) | 19.5 µM (inactive) | 96.4 µM (inactive) | > 100 µM (inactive) |  | > 100 µM (inactive) | > 100 µM (inactive)
Cc1cccc(/C=N/NC(=S)NCc2ccccn2)n1 | 16.5 µM (inactive) | 31 µM (inactive) | 36.1 µM (inactive) | 23.7 | 17.7 µM (inactive) | 47.2 µM (inactive) | 24 µM (inactive) | 14.7 µM (inactive) | 27.7 µM (inactive) | 25.2 µM (inactive) | 26.4 µM (inactive) | 17.9 µM (inactive) |  | 29.3 µM (inactive) | 99.3 µM (inactive) | 41.7 µM (inactive) | 25.9 µM (inactive) | 15.1 µM (inactive) | 23.4 µM (inactive)
c1c[nH]c(-c2cccc3nsnc23)c1 | 40.7 µM (inactive) | 3.78 µM (inactive) | 13.5 µM (inactive) | 15.7 | 71.9 µM (inactive) | > 100 µM (inactive) | 22.8 µM (inactive) | 63.1 µM (inactive) | 53.3 µM (inactive) | > 100 µM (inactive) | 43.5 µM (inactive) | > 100 µM (inactive) | 38.1 µM (inactive) | > 100 µM (inactive) | 19.3 µM (inactive) | > 100 µM (inactive) |  | > 100 µM (inactive) | 
O=c1ssc(Cl)c1Nc1c(Cl)ssc1=O | 2.25 µM (inactive) | 9.2 µM (inactive) | 11.3 µM (inactive) | 18.6 | > 40.7 µM (inactive) |  | 18.2 µM (inactive) | 14.8 µM (inactive) | 22.4 µM (inactive) | 27.2 µM (inactive) | 15.2 µM (inactive) | 17.8 µM (inactive) | 15 µM (inactive) | 28.4 µM (inactive) | 19 µM (inactive) | 22.3 µM (inactive) | 20 µM (inactive) | 17.3 µM (inactive) | 7.85 µM (inactive)
COC(=O)NC1(NC(=O)OC)NC(=O)c2cc(OC)c(OC)cc2N1 |  | 39.4 µM (inactive) | 20.2 µM (inactive) | 13.2 | 30.1 µM (inactive) | 3.83 µM (inactive) | 32.1 µM (inactive) | 62.1 µM (inactive) |  | 31.5 µM (inactive) | 19.2 µM (inactive) | 32.6 µM (inactive) |  |  | > 100 µM (inactive) |  |  | 48.6 µM (inactive) | 
CCCn1c(SC)nc(COC(=O)NC)c1COC(=O)NC | > 100 µM (inactive) | > 100 µM (inactive) | > 100 µM (inactive) | > 100 | > 100 µM (inactive) | > 100 µM (inactive) | > 100 µM (inactive) | > 100 µM (inactive) | > 100 µM (inactive) | > 100 µM (inactive) | > 100 µM (inactive) | > 100 µM (inactive) |  | > 100 µM (inactive) | > 100 µM (inactive) |  |  | > 100 µM (inactive) | > 100 µM (inactive)
